The test system of experiment [1] is Murine stem-cell derived neurons. Briefly: Cellular PD/synucleinopathy model, PFFs-seeded murine neurons, neurite length. The experiment is classed as cell-based. The conditions noted are these: FIG. 14. On the procedure:
Murine stem-cell derived neurons (8 days post-differentiation) were seeded with PFFs (A, B: 4 μg/ml; C, D: 3 μg/ml) and treated with the test compounds at the dose indicated, or with the vehicle DMSO, during the last 2 days of differentiation. Control cells were not PFFs-seeded. Cells were photographed by phase contrast microscopy. Neurite length was quantified using the NeuronJ plugin of ImageJ (NIH), statistical analysis was done in pairs by comparing compound-treated cells with the DMSO control (student's t-test, Prism8). Mean values and SEMs of 4 fields per each condition are shown. Each field contained approximately 50 to 100 neurons. Images shown correspond to a representative area of one field. ****P<0.0001; ***P<0.001; **P<0.01; *P<0.05; ns=not significant.

Experiment [2] deals with PK1 neuroblastoma cells treated with TPrP. Briefly: cells. The conditions noted are these: Neuroblastoma cell, read-out: Viability EC50. The experiment is classed as cell-based.
The test system is the same in experiment [3]. Briefly: cells. The class given is cell-based. The settings on record: Neuroblastoma cell, read-out: NAD EC50.
For experiment [4], the system named is Cells exposed to TPrP. The conditions noted are these: for EC50: read-out: Viability EC50.
In experiment [5] the target is T1, NAMPT (Homo sapiens, UniProt P43490).
T1 construct: purchased Abcam ab221819
T1 sequence (P43490 whole entry): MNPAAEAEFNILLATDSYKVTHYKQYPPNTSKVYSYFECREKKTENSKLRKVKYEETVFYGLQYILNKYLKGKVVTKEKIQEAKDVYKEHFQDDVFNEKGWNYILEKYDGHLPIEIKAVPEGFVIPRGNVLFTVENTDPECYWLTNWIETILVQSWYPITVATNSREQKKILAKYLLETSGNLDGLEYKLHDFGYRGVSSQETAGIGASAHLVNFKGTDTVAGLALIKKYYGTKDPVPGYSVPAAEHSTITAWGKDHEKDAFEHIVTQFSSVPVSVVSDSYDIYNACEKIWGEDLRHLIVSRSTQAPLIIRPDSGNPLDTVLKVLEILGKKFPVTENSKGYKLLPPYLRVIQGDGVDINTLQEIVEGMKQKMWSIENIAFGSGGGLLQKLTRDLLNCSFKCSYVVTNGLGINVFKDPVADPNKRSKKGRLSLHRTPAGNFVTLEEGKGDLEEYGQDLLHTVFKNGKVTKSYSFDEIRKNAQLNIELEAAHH
In words: Colorimetric NAMPT activity assay (Abcam, ab221819). The class given is biochemical. The conditions noted are these: tested at 5 μM or 20 μM. On the procedure:
Compounds were tested in a colorimetric NAMPT activity assay (Abcam, ab221819). Each data point represents a duplicate sample. […] Compounds were tested at 5 μM (A) or 20 μM (B).

Experiment [6] relates to Cells exposed to TPrP. In words: cells. The conditions noted are these: read-out: Viability EC50.

Where “and” joins values, the source holds several entries; their conditions need not be identical. Equal values may be shown once. Read-outs that look alike come from different tables or passages of the source.

Take `O=c1cc(-c2ccc(O)cc2)oc2cc(O)cc(O)c12` [SR1-75663, 5,7-dihydroxy-2-(4-hydroxyphenyl)-4H-chromen-4-one]: the “loss of neurites induced by PFFs exposure” value (“loss of neurites induced” below) in experiment [1] is “prevent loss of neurites”. For the same molecule, the half-maximal effective concentration (EC50) (as a rule, the concentration that produces a half-maximal response) is 1700 nM in experiment [2] and more than 10000 nM in experiment [3].
For `CCc1c(C(=O)NCCN)ncc2[nH]c3cc(OC)c(OC)cc3c12` [DMCM-8130], the EC50 in experiment [4] is approximately 600 nM.
The same measure, in the same setting: with `COc1ccc(-c2cc(C(F)(F)F)n3ncc(C(=O)NCCCn4ccnc4)c3n2)cc1` [SR3-5230] the figure was more than 32 nM.
With `O=C(NCCCn1ccnc1)c1cnn2c(C(F)(F)F)cc(-c3ccc(F)cc3)nc12` [SR0-24083], in experiment [4] (at 1 nM), the “Viability EC50: % effective” value is recorded as ~40% effective at 1 nM, fully effective at 10 nM.
Take `COc1ccc(-c2cc(C(F)(F)F)n3ncc(C(=O)NCCCn4ccnc4C)c3n2)cc1` [SR0-31108]: in experiment [4], the EC50 is more than 50 nM.
As for `Cc1ccc(-c2nnc3c4ccccc4c(C)nn23)cc1S(=O)(=O)NC(C)(C)CO` [SR1-115259], the “loss of neurites induced” value in experiment [1] is reported as “prevent loss of neurites”. For the same molecule, the “Activation of NAMPT” value in experiment [5] was “not”. Besides, the EC50 was determined as 5.1 nM in experiment [2] and 167 nM in experiment [3].
Turning to `O=C(NCCCn1ccnc1)c1cnn2c(C(F)F)cc(-c3ccccc3)nc12` [SR0-24084], in experiment [4] (at 1 nM), the “Viability EC50: % effective” value is ~40% effective at 1 nM, fully effective at 10 nM.
`O=C(NCCCn1ccnc1)c1cnn2c(C(F)(F)F)cc(-c3ccc(Br)cc3)nc12` [SR0-24082]: the “Viability EC50: % effective” value in experiment [4] is ~40% effective at nM, fully effective at 10 nM.
For the molecule `Cc1ccc(-c2cc(C(F)F)n3ncc(C(=O)NCCCn4ccnc4)c3n2)cc1` [SR-024088], the “Viability EC50: % effective” value in experiment [4] (at 1 nM) is given as more than 80% effective at 1 nM.
On to `CCc1c(C(=O)NCCN)ncc2[nH]c3cc(OC)c(OC)cc3c12` [DMCM-8124], for which, in experiment [4], the concentration for a half-maximal effect (EC50) is approximately 1800 nM.
Consider `Cc1nc(C)c(-c2csc(Nc3ccc(S(N)(=O)=O)cc3)n2)s1` [SR1-477302], for which the EC50 was 14 nM in experiment [2]; 18 nM and 30 nM in experiment [4]; 103 nM in experiment [3].
For `COc1cc2cc3c4cc(OC)c(OC)cc4cc[n+]3c(C)c2cc1OC` [SR5-2641, coralyne chloride], the EC50 turned out to be 507 nM in experiment [2] and 671 nM in experiment [3].
Take `CN1C[C@H](CO)C=C2c3cccc4[nH]cc(c34)C[C@H]21` [SR1-758923, lysergol]: the EC50 in experiment [2] is 1900 nM; in experiment [3], more than 15000 nM.
Take `NS(=O)(=O)c1ccc(Nc2nc(-c3cccnc3)cs2)cc1` [SR1-809850]: the 50% effective concentration (EC50) in experiment [2] was found to be 88 nM; in experiment [3], 337 nM.
The corresponding values for `COc1ccc2c(c1O)-c1c(OC)c(O)cc3c1[C@H](C2)N(C)CC3` [SR1-841246, N-Methyl lindcarpine] are 4400 nM and more than 15000 nM.
On to `COc1ccc(-c2cc(=O)c3c(O)cc(OC)cc3o2)cc1` [SR5-2549, 5-hydroxy-7-methoxy-2-(4-methoxyphenyl)-4H-chromen-4-one], for which the EC50 in experiment [2] was determined as 2000 nM; in experiment [3] it was 7300 nM.
With `COc1ccc2cc3[n+](cc2c1OC)CCc1cc2c(cc1-3)OCO2` [SR1-711827, berberine chloride], the EC50 in experiment [2] turned out to be 3100 nM; in experiment [3], 13200 nM.
For `COCCNS(=O)(=O)c1cc(-c2nnc3c4ccccc4c(C)nn23)ccc1C` [SR5-22841] the same measures were 130 nM and 688 nM.
For `Cc1nc2ncccn2c1-c1csc(Nc2ccc(S(N)(=O)=O)cc2)n1` [SR1-477264] the same measures were 155 nM and 597 nM.
For `COc1ccc2c(c1)[nH]c1c(C)nccc12` [SR5-1527, methoxy harman] the same measures were 1800 nM and 14000 nM.
As for `O=c1cc(-c2ccc(O)cc2)oc2cc(O[C@@H]3O[C@H](CO)[C@@H](O)[C@H](O)[C@H]3OC3OC[C@](O)(CO)[C@H]3O)cc(O)c12` (stereo partly shown) [SR1-712126], the EC50 amounted to 4600 nM in experiment [2] and 10700 nM in experiment [3].
For the molecule `COc1ccc(-c2cc(C(F)(F)F)n3ncc(C(=O)NCCCn4ccnc4C)c3n2)cc1` [SR0-31107], the EC50 in experiment [4] is 2 nM.
As to `COc1ccc(-c2cc(C(F)(F)F)n3ncc(C(=O)NCCCn4ccnc4)c3n2)cc1` [SR0-28468], the EC50 in experiment [4] is more than 50 nM.
With `Cc1nc2sccn2c1-c1csc(Nc2ccc(S(N)(=O)=O)cc2)n1` [SR1-477230], the results for the EC50 in experiment [2] and in experiment [3] were 47 nM and 204 nM, respectively.
For the molecule `COc1ccc(-c2cc(C(F)(F)F)n3ncc(C(=O)NCCCn4ccnc4)c3n2)cc1` [SR3-5315], the EC50 in experiment [4] was more than 16 nM.
Consider `Cc1ccc(-c2nnc3c4ccccc4c(C)nn23)cc1S(=O)(=O)N1CCN(C)CC1` [SR1-115275], for which the EC50 in experiment [2] was 839 nM; in experiment [3], 2600 nM.
For `COc1ccc(-c2cc(=O)c3c(O)c(OC)c(O[C@H]4O[C@H](CO[C@@H]5O[C@@H](C)[C@H](O)[C@@H](O)[C@H]5O)[C@@H](O)[C@H](O)[C@H]4O)cc3o2)cc1` [SR5-2766, pectolinargenin 7-[6-O-(6-deoxy-α-L-mannopyranosyl)-β-D-glucopyranosyl] ether] the same measures were 2100 nM and 4000 nM.
The corresponding values for `O=C(NCCCn1ccnc1)c1cnn2c(C(F)(F)F)cc(-c3ccc(-c4ccco4)cc3)nc12` [SR1-550907] are 2.9 nM and 9.7 nM.
The corresponding values for `COc1ccc(-c2cc(=O)c3c(OC)c(OC)c(OC)cc3o2)cc1OC` [SR-05000002257, 2-(3,4-dimethoxyphenyl)-5,6,7-trimethoxy-4H-chromen-4-one] are 323 nM and 3600 nM.
Turning to `COc1ccc(-c2cc(C(F)(F)F)n3ncc(C(=O)NCCCn4ccnc4C)c3n2)cc1` [SR3-5210], the EC50 in experiment [4] came out at 2.7 nM.
As for `Cc1nc(C)c(-c2csc(Nc3ccc(S(N)(=O)=O)cc3)n2)s1` [SR-27807], in experiment [4], the EC50 was found to be 50 nM.
On to `COc1ccc(-c2nnc3c4ccccc4c(C)nn23)cc1S(=O)(=O)N1CCOCC1` [SR5-22837], for which the EC50 in experiment [2] is 29 nM; in experiment [3], 89 nM.
On to `Cc1ccc(-c2nnc3c4ccccc4c(C)nn23)cc1S(=O)(=O)NCCO` [SR1-87813], for which the results for the EC50 in experiment [2] and in experiment [3] were 156 nM and 733 nM, respectively.
The corresponding values for `NS(=O)(=O)c1ccc(Nc2nc(-c3ccc4ccccc4c3)cs2)cc1` [SR1-281377] are 192 nM and 1200 nM.
In the case of `COc1ccc(-c2cc(C(F)(F)F)n3ncc(C(=O)NCCCn4ccnc4)c3n2)cc1` [SR0-24081], in experiment [4], the EC50 was found to be 0.5 nM.
As to `CC(=O)Nc1cccc(-c2csc(Nc3ccc(S(N)(=O)=O)cc3)n2)c1` [SR1-364643], the EC50 in experiment [2] came out at 53 nM; in experiment [3], 263 nM.
In the case of `CCc1c(C(=O)N[C@H]2CC[C@@H](N)CC2)ncc2[nH]c3cc(OC)c(OC)cc3c12` [DMCM-8137], the EC50 in experiment [6] is approximately 500 nM. Also, in experiment [4], the “neuroprotection in the TPrP neuroprotection assay” value is “neuroprotective”.
Consider `Cc1ccc(-c2nnc3c4ccccc4c(C)nn23)cc1S(=O)(=O)N1CCN(CCO)CC1` [SR1-626887], for which the values for the EC50 in experiment [2] and in experiment [3] were less than 3 nM and 9.1 nM, respectively.
In the case of `NS(=O)(=O)c1ccc(Nc2nc(-c3ccncc3)cs2)cc1` [SR1-477186], the “loss of neurites induced” value in experiment [1] was “prevent loss of neurites”. Further, in experiment [5], the “Activation of NAMPT” value was “not”. Besides, the 50% effective concentration (EC50) came to 26 nM in experiment [2] and 365 nM in experiment [3].
